{
  "source": "paper PMC7419507",
  "about": "“In vitro Cas9-assisted editing of modular polyketide synthase genes to produce desired natural product derivatives” (Nature Communications, 2020)",
  "key": {"[1]": {"experiment": "Cytotoxicity assay (CellTiter-Glo, 72 h), SKOV-3", "format": "cell-based, human", "conditions": "human, SKOV-3 ovarian adenocarcinoma cells, conc 6.25 uM; raw replicate data; read-out: SKOV3 viability (%)", "how_it_was_run": "(§1)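 Luminescent ATP read-out (CellTiter-Glo) quantified surviving cells after a 72 h incubation with 2-fold diluted compounds in 0.5% DMSO, added 4 h post-seeding at 1000 cells/well.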"}, "[2]": {"system": "human ovarian adenocarcinoma SKOV-3 cells", "experiment": "Cytotoxicity assay (CellTiter-Glo, 72 h), SKOV-3", "format": "cell-based", "conditions": "raw replicate data", "how_it_was_run": "as §1"}, "[3]": {"experiment": "Cytotoxicity assay (CellTiter-Glo, 72 h), MESO-1", "format": "cell-based", "conditions": "human", "how_it_was_run": "as §1"}, "[4]": {"system": "malignant pleural mesothelioma MESO-1 cells", "experiment": "Cytotoxicity assay (CellTiter-Glo, 72 h), MESO-1", "format": "cell-based", "conditions": "raw replicate data", "how_it_was_run": "as §1"}},
  "note": "“And” between values parts separate entries of the source, which are not always exact repeats. Equal entries are not always repeated.",
  "data": [
    {"smiles": "COC1CC2CCC(C)C(O)(O2)C(=O)C(=O)N2CCCCC2C(=O)OC(C(C)CC2CCC(O)C(OC)C2)CCC(C)C=C(C)C(O)C(OC)C(=O)C(C)CC(C)C=CC=CC=C1C", "note": "(stereo not shown) [Compound 16, 32-desketorapamycin]", "values": [
      {"measurement": "viability at 72 h, 6.25 uM", "setting": "[1]", "result": 57, "unit": "%"},
      {"measurement": "SKOV3 viability (%)", "setting": "[2]; conc 9.53674e-5 uM", "result": "103.5% and 99.3%"},
      {"measurement": "SKOV3 viability (%)", "setting": "[2]; conc 0.000190735 uM", "result": "92.3% and 95.8%"},
      {"measurement": "SKOV3 viability (%)", "setting": "[2]; conc 0.00038147 uM", "result": "95.4% and 93.0%"},
      {"measurement": "SKOV3 viability (%)", "setting": "[2]; conc 0.000762939 uM", "result": "86.5% and 80.1%"},
      {"measurement": "SKOV3 viability (%)", "setting": "[2]; conc 0.00152588 uM", "result": "73.2% and 83.0%"},
      {"measurement": "SKOV3 viability (%)", "setting": "[2]; conc 0.00305176 uM", "result": "64.2% and 71.1%"},
      {"measurement": "SKOV3 viability (%)", "setting": "[2]; conc 0.00610352 uM", "result": "65.5% and 65.6%"},
      {"measurement": "SKOV3 viability (%)", "setting": "[2]; conc 0.012207 uM", "result": "60.5% and 55.5%"},
      {"measurement": "SKOV3 viability (%)", "setting": "[2]; conc 0.0244141 uM", "result": "61.8% and 57.1%"},
      {"measurement": "SKOV3 viability (%)", "setting": "[2]; conc 0.0488281 uM", "result": "55.9% and 56.4%"},
      {"measurement": "SKOV3 viability (%)", "setting": "[2]; conc 0.0976562 uM", "result": "56.0% and 58.1%"},
      {"measurement": "SKOV3 viability (%)", "setting": "[2]; conc 0.195312 uM", "result": "52.7% and 56.6%"},
      {"measurement": "SKOV3 viability (%)", "setting": "[2]; conc 0.390625 uM", "result": "55.9% and 59.7%"},
      {"measurement": "SKOV3 viability (%)", "setting": "[2]; conc 0.78125 uM", "result": "59.7% and 56.2%"},
      {"measurement": "SKOV3 viability (%)", "setting": "[2]; conc 1.5625 uM", "result": "58.0% and 59.2%"},
      {"measurement": "SKOV3 viability (%)", "setting": "[2]; conc 3.125 uM", "result": "56.1% and 56.8%"},
      {"measurement": "SKOV3 viability (%)", "setting": "[2]; conc 12.5 uM", "result": "53.9% and 55.3%"},
      {"measurement": "SKOV3 viability (%)", "setting": "[2]; conc 25 uM", "result": "51.8% and 53.0%"},
      {"measurement": "SKOV3 viability (%)", "setting": "[2]; conc 50 uM", "result": "34.7% and 38.6%"},
      {"measurement": "viability at 72 h", "setting": "[3]; MESO-1 cells (malignant pleural mesothelioma), MESO-1 cells, 72 h, read-out: Plateau level of cell viability in the dose-response curve", "result": "~75", "unit": "%"},
      {"measurement": "viability at 72 h, 9.53674e-05 uM", "setting": "[3]; MESO-1 malignant pleural mesothelioma cells, conc 9.53674e-5 uM, raw replicate data, read-out: MESO1 viability (%)", "result": 102, "unit": "%"},
      {"measurement": "viability at 72 h, 0.000190735 uM", "setting": "[3]; MESO-1 malignant pleural mesothelioma cells, conc 0.000190735 uM, raw replicate data, read-out: MESO1 viability (%)", "result": 86.2, "unit": "%"},
      {"measurement": "viability at 72 h, 0.00038147 uM", "setting": "[3]; MESO-1 malignant pleural mesothelioma cells, conc 0.00038147 uM, raw replicate data, read-out: MESO1 viability (%)", "result": 94.8, "unit": "%"},
      {"measurement": "viability at 72 h, 0.000762939 uM", "setting": "[3]; MESO-1 malignant pleural mesothelioma cells, conc 0.000762939 uM, raw replicate data, read-out: MESO1 viability (%)", "result": 80.3, "unit": "%"},
      {"measurement": "viability at 72 h, 0.00152588 uM", "setting": "[3]; MESO-1 malignant pleural mesothelioma cells, conc 0.00152588 uM, raw replicate data, read-out: MESO1 viability (%)", "result": 82.2, "unit": "%"},
      {"measurement": "viability at 72 h, 0.00305176 uM", "setting": "[3]; MESO-1 malignant pleural mesothelioma cells, conc 0.00305176 uM, raw replicate data, read-out: MESO1 viability (%)", "result": 74.9, "unit": "%"},
      {"measurement": "viability at 72 h, 0.00610352 uM", "setting": "[3]; MESO-1 malignant pleural mesothelioma cells, conc 0.00610352 uM, raw replicate data, read-out: MESO1 viability (%)", "result": 80.5, "unit": "%"},
      {"measurement": "viability at 72 h, 0.012207 uM", "setting": "[3]; MESO-1 malignant pleural mesothelioma cells, conc 0.012207 uM, raw replicate data, read-out: MESO1 viability (%)", "result": 73.8, "unit": "%"},
      {"measurement": "viability at 72 h, 0.0244141 uM", "setting": "[3]; MESO-1 malignant pleural mesothelioma cells, conc 0.0244141 uM, raw replicate data, read-out: MESO1 viability (%)", "result": 74.4, "unit": "%"},
      {"measurement": "viability at 72 h, 0.0488281 uM", "setting": "[3]; MESO-1 malignant pleural mesothelioma cells, conc 0.0488281 uM, raw replicate data, read-out: MESO1 viability (%)", "result": 72.5, "unit": "%"},
      {"measurement": "viability at 72 h, 0.0976562 uM", "setting": "[3]; MESO-1 malignant pleural mesothelioma cells, conc 0.0976562 uM, raw replicate data, read-out: MESO1 viability (%)", "result": 78.4, "unit": "%"},
      {"measurement": "viability at 72 h, 0.195312 uM", "setting": "[3]; MESO-1 malignant pleural mesothelioma cells, conc 0.195312 uM, raw replicate data, read-out: MESO1 viability (%)", "result": 68.5, "unit": "%"},
      {"measurement": "viability at 72 h, 0.390625 uM", "setting": "[3]; MESO-1 malignant pleural mesothelioma cells, conc 0.390625 uM, raw replicate data, read-out: MESO1 viability (%)", "result": 78.4, "unit": "%"},
      {"measurement": "viability at 72 h, 0.78125 uM", "setting": "[3]; MESO-1 malignant pleural mesothelioma cells, conc 0.78125 uM, raw replicate data, read-out: MESO1 viability (%)", "result": 66.1, "unit": "%"},
      {"measurement": "viability at 72 h, 1.5625 uM", "setting": "[3]; MESO-1 malignant pleural mesothelioma cells, conc 1.5625 uM, raw replicate data, read-out: MESO1 viability (%)", "result": 73.1, "unit": "%"},
      {"measurement": "viability at 72 h, 3.125 uM", "setting": "[3]; MESO-1 malignant pleural mesothelioma cells, conc 3.125 uM, raw replicate data, read-out: MESO1 viability (%)", "result": 67.9, "unit": "%"},
      {"measurement": "viability at 72 h, 6.25 uM", "setting": "[3]; MESO-1 malignant pleural mesothelioma cells, conc 6.25 uM, raw replicate data, read-out: MESO1 viability (%)", "result": 67.3, "unit": "%"},
      {"measurement": "viability at 72 h, 12.5 uM", "setting": "[3]; MESO-1 malignant pleural mesothelioma cells, conc 12.5 uM, raw replicate data, read-out: MESO1 viability (%)", "result": 59.2, "unit": "%"},
      {"measurement": "viability at 72 h, 25 uM", "setting": "[3]; MESO-1 malignant pleural mesothelioma cells, conc 25 uM, raw replicate data, read-out: MESO1 viability (%)", "result": 53.2, "unit": "%"},
      {"measurement": "viability at 72 h, 50 uM", "setting": "[3]; MESO-1 malignant pleural mesothelioma cells, conc 50 uM, raw replicate data, read-out: MESO1 viability (%)", "result": 31.7, "unit": "%"},
      {"measurement": "MESO1 viability (%)", "setting": "[4]; conc 9.53674e-5 uM", "result": "98.1% and 96.4%"},
      {"measurement": "MESO1 viability (%)", "setting": "[4]; conc 0.000190735 uM", "result": "91.1% and 98.0%"},
      {"measurement": "MESO1 viability (%)", "setting": "[4]; conc 0.00038147 uM", "result": "95.4% and 92.4%"},
      {"measurement": "MESO1 viability (%)", "setting": "[4]; conc 0.000762939 uM", "result": "78.9% and 75.5%"},
      {"measurement": "MESO1 viability (%)", "setting": "[4]; conc 0.00152588 uM", "result": "89.1% and 81.4%"},
      {"measurement": "MESO1 viability (%)", "setting": "[4]; conc 0.00305176 uM", "result": "75.1% and 66.9%"},
      {"measurement": "MESO1 viability (%)", "setting": "[4]; conc 0.00610352 uM", "result": "75.6% and 76.2%"},
      {"measurement": "MESO1 viability (%)", "setting": "[4]; conc 0.012207 uM", "result": "76.9% and 75.8%"},
      {"measurement": "MESO1 viability (%)", "setting": "[4]; conc 0.0244141 uM", "result": "81.3% and 75.2%"},
      {"measurement": "MESO1 viability (%)", "setting": "[4]; conc 0.0488281 uM", "result": "73.0% and 74.7%"},
      {"measurement": "MESO1 viability (%)", "setting": "[4]; conc 0.0976562 uM", "result": 75.8, "unit": "%"},
      {"measurement": "MESO1 viability (%)", "setting": "[4]; conc 0.195312 uM", "result": "76.9% and 68.9%"},
      {"measurement": "MESO1 viability (%)", "setting": "[4]; conc 0.390625 uM", "result": 78.5, "unit": "%"},
      {"measurement": "MESO1 viability (%)", "setting": "[4]; conc 0.78125 uM", "result": "69.3% and 68.9%"},
      {"measurement": "MESO1 viability (%)", "setting": "[4]; conc 1.5625 uM", "result": "73.6% and 69.8%"},
      {"measurement": "MESO1 viability (%)", "setting": "[4]; conc 3.125 uM", "result": "61.9% and 65.8%"},
      {"measurement": "MESO1 viability (%)", "setting": "[4]; conc 6.25 uM", "result": "68.9% and 66.9%"},
      {"measurement": "MESO1 viability (%)", "setting": "[4]; conc 12.5 uM", "result": "60.8% and 58.2%"},
      {"measurement": "MESO1 viability (%)", "setting": "[4]; conc 25 uM", "result": "49.9% and 47.7%"},
      {"measurement": "MESO1 viability (%)", "setting": "[4]; conc 50 uM", "result": "33.7% and 30.2%"}
    ]}
  ]
}
